Results taken from PubChem BioAssay AID248 (DTP/NCI, 2004).
Values joined by “and” are separate entries in the source; they are usually repeats but may differ in a detail not shown here. Equal values may be shown once. Inconclusive results and toxic doses are left out. No stated cut-off is given here; in the data, active means T/C of 150% or more; inactive means T/C below 125%.

Tested on: L1210 leukemia ip in BDF1 mice, survival T/C
Assay: NCI In Vivo Anticancer Drug Screen. Data for tumor model L1210 Leukemia (intraperitoneal) in B6D2F1 (BDF1) mice
Settings: endpoint: mean survival time, higher = longer survival
Outline: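 Each compound was tested against a transplantable tumor grown in mice. The endpoint was survival, with treated animals benchmarked against vehicle controls as a simple ratio.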

[1] = dose: 100.0 mg/kg/injection, schedule: Q04DX003 (ip), vehicle: saline
[2] = dose: 200.0 mg/kg/injection, schedule: Q04DX003 (ip), vehicle: saline
[3] = dose: 400.0 mg/kg/injection, schedule: Q04DX003 (ip), vehicle: saline
[4] = dose: 100.0 mg/kg/injection, schedule: Q01DX009 (ip), vehicle: saline with Tween-80
[5] = dose: 200.0 mg/kg/injection, schedule: Q01DX009 (ip), vehicle: saline with Tween-80
[6] = dose: 400.0 mg/kg/injection, schedule: Q01DX009 (ip), vehicle: saline with Tween-80
[7] = dose: 100.0 mg/kg/injection, schedule: Q04DX003 (ip), vehicle: saline with Tween-80
[8] = dose: 200.0 mg/kg/injection, schedule: Q04DX003 (ip), vehicle: saline with Tween-80
[9] = dose: 400.0 mg/kg/injection, schedule: Q04DX003 (ip), vehicle: saline with Tween-80
[10] = dose: 100.0 mg/kg/injection, schedule: Q01DX001 (ip), vehicle: carboxymethylcellulose (CMC)
[11] = dose: 200.0 mg/kg/injection, schedule: Q01DX001 (ip), vehicle: carboxymethylcellulose (CMC)
[12] = dose: 400.0 mg/kg/injection, schedule: Q01DX001 (ip), vehicle: carboxymethylcellulose (CMC)

Measured: T/C

Cc1cc(N(CCCl)CCCl)c(C)cc1NC(=O)c1ccccc1
inactive: dose: 0.75 mg/kg/injection, schedule: Q01DX009 (ip), vehicle: other 109 % of control | dose: 1.5 mg/kg/injection, schedule: Q01DX009 (ip), vehicle: other 105 % of control | dose: 3.0 mg/kg/injection, schedule: Q01DX009 (ip), vehicle: other 124 % of control | dose: 5.0 mg/kg/injection, schedule: Q01DX001 (ip), vehicle: other 118 % of control | dose: 6.0 mg/kg/injection, schedule: Q01DX009 (ip), vehicle: carboxymethylcellulose (CMC) 119 % of control | dose: 10.0 mg/kg/injection, schedule: Q01DX001 (ip), vehicle: other 114 % of control | dose: 10.0 mg/kg/injection, schedule: Q01DX001 (ip), vehicle: saline 117 % of control | dose: 10.0 mg/kg/injection, schedule: Q01DX009 (ip), vehicle: carboxymethylcellulose (CMC) 119 % of control | dose: 17.6 mg/kg/injection, schedule: Q01DX001 (ip), vehicle: carboxymethylcellulose (CMC) 111 % of control | dose: 17.6 mg/kg/injection, schedule: Q01DX001 (ip), vehicle: other 110 % of control and 115 % of control | dose: 18.0 mg/kg/injection, schedule: Q01DX009 (ip), vehicle: carboxymethylcellulose (CMC) 117 % of control | dose: 20.0 mg/kg/injection, schedule: Q01DX001 (ip), vehicle: other 122 % of control | dose: 20.0 mg/kg/injection, schedule: Q01DX001 (ip), vehicle: saline 96 % of control | dose: 26.0 mg/kg/injection, schedule: Q01DX001 (ip), vehicle: carboxymethylcellulose (CMC) 120 % of control | dose: 26.0 mg/kg/injection, schedule: Q01DX001 (ip), vehicle: other 115 % of control | dose: 30.0 mg/kg/injection, schedule: Q01DX009 (ip), vehicle: carboxymethylcellulose (CMC) 101 % of control | dose: 30.0 mg/kg/injection, schedule: Q01DX009 (ip), vehicle: other 96 % of control | dose: 40.0 mg/kg/injection, schedule: Q01DX001 (ip), vehicle: other 124 % of control | dose: 40.0 mg/kg/injection, schedule: Q01DX001 (ip), vehicle: saline 122 % of control | dose: 80.0 mg/kg/injection, schedule: Q01DX001 (ip), vehicle: carboxymethylcellulose (CMC) 120 % of control | dose: 80.0 mg/kg/injection, schedule: Q01DX001 (ip), vehicle: saline 114 % of control | dose: 120.0 mg/kg/injection, schedule: Q01DX001 (ip), vehicle: carboxymethylcellulose (CMC) 88 % of control

O=C1NC(c2ccccc2)(c2ccccc2)C(=O)N1SC(Cl)(Cl)Cl
inactive: dose: 25.0 mg/kg/injection, schedule: Q04DX002 (ip), vehicle: Klucel (hydroxypropylcellulose) (HPC) 100 % of control | dose: 50.0 mg/kg/injection, schedule: Q04DX002 (ip), vehicle: Klucel (hydroxypropylcellulose) (HPC) 118 % of control

CC(NCCO)C(O)c1ccccc1 (configuration not stated)
inactive: dose: 100.0 mg/kg/injection, schedule: Q01DX009 (ip), vehicle: saline 94 % of control | [1] 95 % of control | dose: 200.0 mg/kg/injection, schedule: Q01DX009 (ip), vehicle: saline 94 % of control | [2] 104 % of control | dose: 400.0 mg/kg/injection, schedule: Q01DX009 (ip), vehicle: saline 103 % of control | [3] 97 % of control

COc1ccc(C(=O)C(C)C(O)C(=O)O)c(O)c1C (configuration not stated)
inactive: [4] 96 % of control | [1] 97 % of control | [5] 100 % of control | [2] 94 % of control | [6] 102 % of control | [3] 98 % of control

Cc1ccc(-n2ccnc2)c(N=Cc2ccc(N(CCCl)CCCl)cc2Cl)c1
inactive: dose: 100.0 mg/kg/injection, schedule: Q04DX002 (ip), vehicle: Klucel (hydroxypropylcellulose) (HPC) 102 % of control | dose: 200.0 mg/kg/injection, schedule: Q04DX002 (ip), vehicle: Klucel (hydroxypropylcellulose) (HPC) 102 % of control | dose: 400.0 mg/kg/injection, schedule: Q04DX002 (ip), vehicle: Klucel (hydroxypropylcellulose) (HPC) 102 % of control

CC(C)=C(c1ccc(Cl)cc1)c1c(N)ncnc1N
inactive: [7] 100 % of control | [8] 100 % of control | [9] 100 % of control

Cc1cc(O)ccc1SC#N
inactive: dose: 3.12 mg/kg/injection, schedule: Q04DX003 (ip), vehicle: saline + alcohol 97 % of control | dose: 6.25 mg/kg/injection, schedule: Q04DX003 (ip), vehicle: saline + alcohol 101 % of control | dose: 12.5 mg/kg/injection, schedule: Q04DX003 (ip), vehicle: saline + alcohol 101 % of control

O=C(O)CC[n+]1c(/C=C/c2cc(Br)c(O)c(Br)c2)sc2ccccc21
inactive: dose: 100.0 mg/kg/injection, schedule: Q04DX003 (ip), vehicle: saline sonified 102 % of control | dose: 200.0 mg/kg/injection, schedule: Q04DX003 (ip), vehicle: saline sonified 99 % of control

C[C@]12CC[C@H]3[C@@H](CCC4=CC(=O)CC[C@@]43C)[C@@H]1CC[C@@H]2OC(=O)Cc1ccc(N(CCCl)CCCl)cc1
inactive: dose: 100.0 mg/kg/injection, schedule: Q01DX001 (sc), vehicle: steriod suspending solution 94 % of control | dose: 200.0 mg/kg/injection, schedule: Q01DX001 (sc), vehicle: steriod suspending solution 96 % of control | dose: 400.0 mg/kg/injection, schedule: Q01DX001 (sc), vehicle: steriod suspending solution 91 % of control

COc1ccc(C(=S)N(C)c2ccccc2)cc1
inactive: dose: 100.0 mg/kg/injection, schedule: Q04DX003 (ip), vehicle: gum acacia 96 % of control | dose: 200.0 mg/kg/injection, schedule: Q04DX003 (ip), vehicle: gum acacia 93 % of control | dose: 400.0 mg/kg/injection, schedule: Q04DX003 (ip), vehicle: gum acacia 95 % of control

CC1(C)N=C(N)N=C(N)N1c1ccc(OCCCCOc2ccc(S(=O)(=O)F)cc2)cc1
inactive: dose: 75.0 mg/kg/injection, schedule: Q01DX001 (ip), vehicle: Klucel (hydroxypropylcellulose) (HPC) 106 % of control | dose: 150.0 mg/kg/injection, schedule: Q01DX001 (ip), vehicle: Klucel (hydroxypropylcellulose) (HPC) 91 % of control | dose: 300.0 mg/kg/injection, schedule: Q01DX001 (ip), vehicle: Klucel (hydroxypropylcellulose) (HPC) 96 % of control

CCC1(O)C(=O)OCc2c1cc(C(=O)OC)n(C)c2=O (configuration not stated)
inactive: dose: 25.0 mg/kg/injection, schedule: Q01DX001 (ip), vehicle: saline with Tween-80 97 % of control | dose: 50.0 mg/kg/injection, schedule: Q01DX001 (ip), vehicle: saline with Tween-80 95 % of control | dose: 100.0 mg/kg/injection, schedule: Q01DX001 (ip), vehicle: saline with Tween-80 97 % of control | dose: 200.0 mg/kg/injection, schedule: Q01DX001 (ip), vehicle: saline with Tween-80 98 % of control

O=Cc1cc2c(cc1Cl)OCO2
inactive: [7] 92 % of control | [8] 86 % of control | [9] 97 % of control

CCC[N+]1(C)CCOCC1
inactive: dose: 75.0 mg/kg/injection, schedule: Q01DX001 (ip), vehicle: saline 94 % of control and 89 % of control

O=c1[nH]c2cc(Br)ccc2c2ccccc12
inactive: [10] 95 % of control | [11] 101 % of control | [12] 94 % of control

O=C(Nc1cccc(F)c1)Nc1ccc(C(=O)O)c(O)c1
inactive: [4] 91 % of control | [5] 95 % of control

O=C1/C(=C\C=C\c2ccccc2)CCCC/C1=C\C=C\c1ccccc1
inactive: dose: 50.0 mg/kg/injection, schedule: Q01DX001 (ip), vehicle: carboxymethylcellulose (CMC) 97 % of control | [10] 90 % of control | [11] 97 % of control | [12] 92 % of control

O=C(NO)Nc1ccccc1
inactive: dose: 50.0 mg/kg/injection, schedule: Q01DX Z (ip), vehicle: carboxymethylcellulose (CMC) 94 % of control | [4] 98 % of control | dose: 100.0 mg/kg/injection, schedule: Q01DX Z (ip), vehicle: carboxymethylcellulose (CMC) 95 % of control | [7] 95 % of control | dose: 150.0 mg/kg/injection, schedule: Q01DX Z (ip), vehicle: methylcellulose (MC) 112 % of control | [5] 109 % of control | [8] 96 % of control | dose: 230.0 mg/kg/injection, schedule: Q01DX Z (ip), vehicle: methylcellulose (MC) 97 % of control | [6] 98 % of control | [9] 106 % of control

COc1ccc(C2OC23CC(C)(C)c2ccccc2C3=O)cc1 (configuration not stated)
inactive: [7] 93 % of control | [8] 89 % of control | [9] 94 % of control

N=C(N=C(N)N)N1CCOCC1
inactive: [4] 101 % of control | [7] 105 % of control | [5] 98 % of control | [8] 112 % of control | [6] 103 % of control | [9] 104 % of control
